# Experimental data published in PubChem BioAssay AID179 (DTP/NCI, 2004).
# Activity calls are given as the source filed them.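 Rule for the calls: active = compounds giving half or more protection of infected cells from virus-caused growth loss, again on retest; inactive = the rest.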
# Test system: CEM cells HIV-1 protection, formazan growth assay
# Assay: NCI AIDS Antiviral Assay
# Conditions: for IC50: measured here: growth of uninfected CEM cells
# In short: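 CEM (human) cells, HIV-1 infected vs uninfected, 5-point dosing, formazan growth read-out. Retest threshold 50% protection.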
Compound,EC50 [µM],IC50 [µM],outcome
C[CH2][Sn]([CH2]C)([O]C(=O)c1ccccc1OC)[O][Sn]([CH2]C)([CH2]C)[O]C(=O)c1ccccc1OC,> 38.9,29.5,
O=c1c2n[nH]nc2nc2n1CC(c1ccccc1)S2 (stereo unspecified),,,inactive
CC(=O)OCC1OC(NC(=S)CCSc2nc3ccccc3c(=O)n2-c2ccccc2)C(OC(C)=O)C(OC(C)=O)C1OC(C)=O (stereo unspecified),> 200,28.2,
Cc1cc(C)c2c(c1)CN1CN2Cc2cc(C)cc(C)c21,,,inactive
S=C(NCc1ccccc1-c1ccccc1)Nc1ccc(Br)cn1,> 2,0.38,
NS(=O)(=O)c1ccc(NC(=O)Nc2ccc(F)cc2)cc1,> 200,74.1,
COc1cc(C(=O)n2c(=O)oc(=O)c3cc([N+](=O)[O-])ccc32)cc(OC)c1OC,> 200,> 200,
C1CCN(c2nsc(N3CCCCC3)n2)CC1,,,inactive
Cc1nc(C)c(Cc2ccccc2)o1,> 200,> 200,
CSc1ncccc1C(=O)[O][Sn]([c]1ccccc1)([c]1ccccc1)[c]1ccccc1,> 2,0.316,
Clc1cccc(NC2=NCCN=C(Nc3cccc(Cl)c3)SS2)c1,,,inactive
COc1ccc(Nc2nc(NS(=O)(=O)c3cc(C)c(Cl)cc3S)n[nH]2)cc1,178,257,
O=C1CC(NC(=O)C(F)(F)F)c2c(Br)sc(N3CCOCC3)c21 (stereo unspecified),> 200,> 200,
Cc1noc2c1NC(=O)OC(C)(C)C2,> 447,> 447,
O=c1n(-c2ccccc2)c(=O)n2n1C1C3C4C5C1C5C2C43 (stereo unspecified),> 200,> 200,
CCOC(=O)NC(Nc1c(F)c(F)c(F)c(F)c1F)(C(F)(F)F)C(F)(F)F,> 200,141,
C=CC(CCC(C)OC(CCC)OCC)[Si](C)(C)C (stereo unspecified),> 91.2,> 91.2,
OCC1=CC(NC2CC(CO)C(O)C(O)C2O)C(O)C(O)C1O (stereo unspecified),,,inactive
N#CC1(C#N)NC(c2ccccc2)C(C#N)(C#N)NC1c1ccccc1 (stereo unspecified),> 200,> 200,
COc1cccc(C(C#N)NC23CC4CC(CC(C4)C2)C3)c1 (stereo unspecified),,,inactive
CCCc1cc(=O)oc2c3c(cc(OC(C)C)c12)O[C@H](C)[C@@H](C)[C@H]3O,> 200,12,
COc1cc2c(cc1OC)C(=O)/C(=C/c1ccccc1)C2,> 200,151,
CC(=N/NC(=S)N1CCCCCC1)/C(C)=N\NC(=S)N1CCCCCC1,> 100,8.71,
Nc1c(C(=O)N/N=C/c2ccccc2)sc(=S)n1-c1ccccc1,> 4.07,> 4.07,

Compound,EC50 [µM],IC50 [µM],outcome
O=C1COc2cccnc2N1CCCCO,> 200,> 200,
NC(=O)C1CC2(C1)CC(C(N)=O)C2 (stereo unspecified),> 245,> 245,
COc1ccc2[nH]c(=O)cc(C)c2c1[N+](=O)[O-],,,inactive
N#CC(/C=C/c1ccccc1)NCCc1ccccc1 (stereo unspecified),> 10.5,> 10.5,
N#CNC(N)=NC1=CC(=O)C(=O)c2ccccc21,> 30.2,17.4,
COC(=O)[C@@H](Cc1ccccc1)NNC(=O)OC(C)(C)C,> 851,437,
CC1CC12OC(=O)N(c1cc(Cl)cc(Cl)c1)C2=O (stereo unspecified),> 200,31.6,
O=C(SSC(=O)c1ccccc1)c1ccccc1,> 200,22.4,
NN1C(=O)c2cccc3cccc(c23)C1=O,> 100,49,
O=C1OC(CC(=O)c2ccc(Cl)cc2)C(Cl)=C1Cl (stereo unspecified),> 85.1,> 85.1,
O=C(O)C(CS(=O)(=O)O)Nc1ccc([N+](=O)[O-])cc1[N+](=O)[O-] (stereo unspecified),> 692,> 692,
C1=C(c2ccccc2)SC(N2CCCCC2)S1 (stereo unspecified),,,inactive
c1ccc(CC2COC(c3cccs3)=N2)cc1 (stereo unspecified),> 200,126,
CC(=O)O[C@H]1CC[C@@]2(C)C(CC[C@@H]3C2C(Br)C(=O)[C@]2(C)C4C(CC32)OC2(OCC(C)CC2Br)C4C)C1 (stereo partly specified),,,inactive
CCCCCN1CCN(c2ncccn2)CC1,> 200,> 200,
C/C=C(/C)C(=O)O[C@H](C[C@@H](C)[C@H]1CC(c2ccoc2)OC1=O)[C@@]1(C)C(=O)CCC2O[C@]21C (stereo partly specified),> 200,> 200,
C/C=C(/C1CC2c3[nH]c4ccccc4c3CCN2C(=O)C1C(=O)OCC)[Si](C)(C)C (stereo unspecified),> 8.91,> 8.91,
N#Cc1nc(/C=C/c2cccs2)oc1N,> 200,107,
O=C1C=CC(=O)C2C1C1CC3C=CC312 (stereo unspecified),> 1350,> 1350,
O=C1CCC2COc3ccc(O)c1c32 (stereo unspecified),,,inactive
O=[N+]([O-])C1(C2([N+](=O)[O-])CCCC2)CCCC1,44.7,110,
CC(C)=CC(=O)CC(=O)C(=O)Nc1ccc(Cl)c(Cl)c1,> 417,> 417,
Cc1cccc(C)c1NC(=O)C1=NC(=S)NC(c2ccccc2)C1c1nc2ccccc2s1 (stereo unspecified),,,inactive
COc1ccc2c(ccc3[nH]c4c(C)cnc(NCCCN)c4c32)c1,> 2,0.219,

Compound,EC50 [µM],IC50 [µM],outcome
COC(=O)C1Cc2c(OC)ccc(OC)c2C(O)C1C(=O)OC (stereo unspecified),> 200,> 200,
CCN(CC)CC(=O)Nc1cc(C)ccc1Cl,> 200,> 200,
CCCCCCCCCCCCCCCC[N+]1(C)CC2CCCCC2C1 (stereo unspecified),> 2,0.55,
CC1(CCC2C=CCC2)CCCNC1=S (stereo unspecified),38,89.1,
O=C(OOC(=O)c1ccccc1)c1ccccc1,> 200,> 200,
CCOC(=O)/C(=C/c1ccccc1Br)P(=O)(OCC)OCC,> 91.2,5.75,
O=C(Nc1cc2c(oc1=O)CCCCCC2)c1cnccn1,> 50.1,> 50.1,
O=c1cc(NNc2cccc(F)c2)[nH]c(=O)[nH]1,> 200,1.1,
Cn1c(=N)c2cnn(-c3ccccc3)c2n(C)c1=O,> 490,> 490,
CC(C)c1ccc(C=Nc2ccc(SSc3ccc(N=Cc4ccc(C(C)C)cc4)cc3)cc2)cc1,> 200,29.5,
CNC(=O)OCC1=CC(=O)C=C(OC)C1=O,> 550,11,
O=S(=O)(O)CC(O)CCl (stereo unspecified),> 200,> 200,
CC1CN(CCO)CC(C)O1 (stereo unspecified),> 1580,> 1580,
C(#CP(c1ccccc1)c1ccccc1)P(C#CP(c1ccccc1)c1ccccc1)c1ccccc1,,,inactive
CCC1=C(C)c2cc3[n-]c(cc4nc(c(C=O)c5[n-]c(cc1n2)c(C)c5CC)C(C)=C4CC)c(C)c3CC.[Ni+2],> 50.1,> 50.1,
COc1cc(/C=C/C(=O)OCCc2ccccc2)ccc1O,> 8.32,5.13,
CCOC1OC(CO[Si](C)(C)C(C)(C)C)C(O)CC1n1ccc(=O)[nH]c1=O (stereo unspecified),> 200,31.6,
CCn1c2ccccc2c2nnc(NCCCO)nc21,> 200,141,
O=c1ccnc2ccc3n[nH][nH]c3c12,,,inactive
O=S(=O)(O)c1cc(Cl)c(O)c2ncc(Cl)cc12,> 200,42.7,
CCC(C)[C@H]1C(=O)N=C(N)N1C(=O)OCc1ccccc1 (stereo partly specified),195,> 200,
COc1ccc(CCN2CCC(C#N)(c3ccc(OC)c(OC)c3)CC2)cc1OC,> 57.5,> 57.5,
CC(C)OC(=O)OCSc1ccccc1N=Cc1cccc([N+](=O)[O-])c1,> 200,38,
O=C(OCCNC(=O)N1CC1)OCCNC(=O)N1CC1,> 200,> 200,

Compound,EC50 [µM],IC50 [µM],outcome
N#CC(C(=O)CCC(=O)Nc1ccc(Cl)cc1)c1ccc(Cl)cc1 (stereo unspecified),,,inactive
CC1(C)C[N+](C)(C)C2(CCCC2)O1,> 200,> 200,
CCCC(=O)OC(C(Cl)(Cl)Cl)P(=O)(OC)OC (stereo unspecified),> 200,30.9,
COC(=O)C1=COC(OC2OC(CO)C(O)C(O)C2O)C2C1C=C[C@@]21C=C([C@@H](C)OC(=O)/C=C/c2ccc(O)cc2)C(=O)O1 (stereo partly specified),> 295,158,
COc1cc2c(cc1OC)/C(=C/c1ccc(N(C)C)cc1)C=C2,> 17,> 17,
c1ccc2c(c1)Sc1ccccc1C2=C1c2ccccc2Sc2ccccc21,> 200,10.7,
COc1ccc2ccccc2c1-c1cccc2ccccc12,> 200,32.4,
COc1ccc(Cl)cc1C(=O)c1cc(Cl)cc(S(=O)(=O)O)c1OC,> 617,427,
NC(=S)N/N=C1\C(=O)N(CCc2ccccc2)C(=O)C1C(=O)NCCc1ccccc1 (stereo unspecified),> 81.3,70.8,
CCCCCCCCCCn1cccc1/C=C/c1ccc(/C=C/c2cccn2CCCCCCCCCC)cc1,,,inactive
O=C(O)[C@@H]1CSC(C(O)C(O)C(O)CO)N1 (stereo partly specified),> 355,> 355,
N#Cc1ccc(OCCSCCCCCCCCCCSCCOc2ccc(C#N)cc2)cc1,> 2.88,> 2.88,
O=C1OC2C(O)COC2(O)C1(O)C(C[N+](=O)[O-])c1ccc(Cl)cc1 (stereo unspecified),> 200,17,
CC(=O)NC(CCCOC(C)=O)C(=O)NC(CCCOC(C)=O)C(=O)NC(CCCOC(C)=O)C(=O)NC(Cc1ccc([N+](=O)[O-])cc1)C(=O)NCC(=O)OCc1ccccc1 (stereo unspecified),> 200,> 200,
CC(N)CNCC(C)N (stereo unspecified),> 200,> 200,
CN1/C(=C\N=O)C(C)(C)N(O)C1(C)C,> 200,> 200,
Cc1ccc(S(=O)(=O)N2CCN3C(=O)c4ccccc4C32c2ccc(F)cc2)cc1 (stereo unspecified),> 200,31.6,
c1ccc2c3nnc(c2c1)SCCCSc1nnc(c2ccccc12)SCCCS3,> 200,> 200,
Cc1c(CCC(C)C)oc2cc3oc(CCC(C)C)c(C)c3cc12,> 70.8,> 70.8,
CC(=N\NC(=O)c1ccccc1)/C(C)=N/NC(=O)c1ccccc1,> 30.9,> 30.9,
CCCNC(=O)c1nc(SC)sc1NC(=O)c1ccc(OC)cc1,> 200,> 200,
